In the test the target is T1, 17betaHSD1 (Homo sapiens, UniProt P14061).
T1 sequence (P14061 1-328): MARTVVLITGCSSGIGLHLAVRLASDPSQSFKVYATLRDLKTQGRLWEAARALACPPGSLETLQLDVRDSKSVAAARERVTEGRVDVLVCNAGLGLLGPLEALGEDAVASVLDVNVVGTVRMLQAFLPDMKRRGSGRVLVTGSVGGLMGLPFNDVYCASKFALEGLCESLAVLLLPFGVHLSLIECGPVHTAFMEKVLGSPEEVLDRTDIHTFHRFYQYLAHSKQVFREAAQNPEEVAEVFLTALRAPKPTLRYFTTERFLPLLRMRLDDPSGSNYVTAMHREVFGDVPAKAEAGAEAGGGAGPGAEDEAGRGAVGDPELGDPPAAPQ
In words: screen of gossypol related compounds against 17betaHSD1 (enzyme activity). The class given is biochemical. The conditions noted are these: for Ki: read-out: inhibition constant. On the procedure: Seven gossypol related compounds were screened against 17betaHSD1. […] Four gossypol derivatives, in which the aldehyde functional group is modified, were tested. The peri-acylated nitrites, gossylic nitrile diacetate and gossylic nitrile divalerate, represent compounds in which the aldehyde group is [drawing 13] converted to a nitrile, and the peri hydroxyl of gossypol is derivatized.
Gossylic iminolactone and gossylic lactone were the most promising compounds, producing 80-90% reduction in enzyme activity. The inhibition constants for gossylic lactone and gossylic iminolactone were determined to be 2.2 and 4.3 uM respectively.

SMILES strings stand for the structures.

As to `Cc1cc2c(C(C)C)c(O)c(O)c3c2c(c1-c1c(C)cc2c(C(C)C)c(O)c(O)c4c2c1OC4=O)OC3=O` [gossylic lactone], the Ki came out at 2.2 µM.

On to `CCCCC(=O)Oc1c(-c2c(C)cc3c(C(C)C)c(O)c(O)c(C#N)c3c2OC(=O)CCCC)c(C)cc2c(C(C)C)c(O)c(O)c(C#N)c12` [gossylic nitrile divalerate], for which the “reduction in enzyme activity (in words)” value (concentrations not given) is “no reduction”.

With `CC(=O)Oc1c(-c2c(C)cc3c(C(C)C)c(O)c(O)c(C#N)c3c2OC(C)=O)c(C)cc2c(C(C)C)c(O)c(O)c(C#N)c12` [Gossylic nitrile diacetate, gossylic nitrile diacetate], the “reduction in enzyme activity” value (concentrations not given) is given as 13%. Regarding `Cc1cc2c(C(C)C)c(O)c(O)c3c2c(c1-c1c(C)cc2c(C(C)C)c(O)c(O)c4c2c1OC4=N)OC3=N` [Gossylic iminolactone, gossylic iminolactone], the Ki came out at 4.3 µM.

The values are drawn from patent US20050228038A1, “11-Beta hydroxysteroid dehydrogenase type 1 inhibitors as anti-obesity/anti-diabetes compounds and 17-beta hydrosteroid dehydrogenase type I inhibitors as useful agents for the treatment of cancers, especially breast cancer” (priority 2004, published 2005).
